One may read the IC50 as the concentration that gives 50% inhibition.

The source made the active and inactive calls. The rule behind the calls is not given here. Where only a bound is given, the exact number is not on record here.

The test system of this experiment is 697B B-cell line, NF-kB luciferase reporter luminescence. The experiment is described as follows: NF-kB reporter inhibition in B cells, dose response, selectivity assay for T-cell antigen receptor NF-kB inhibitors, 697B cells, luminescence (AID 489033).
On to `COc1ccc(OCC(=O)Nc2ccccc2N2CCCCC2)cc1`, for which the IC50 was > 80 µM (inactive).

As to `COc1ccc(/C=N/NC(=O)c2[nH]c3ccc(Br)cc3c2-c2ccccc2)cc1`, the IC50 was > 80 µM (inactive).

With `Cc1nnc(N/N=C/c2ccccn2)[nH]c1=O`, the IC50 was 1.45 µM.

`C/C=C(\C)C(=O)N[C@@H](c1ccccc1)[C@@H](O)C(=O)O[C@H]1C[C@@]2(O)[C@@H](OC(=O)c3ccccc3)C3[C@](C)(C(=O)[C@H](O)C(=C1C)C2(C)C)[C@@H](O)C[C@H]1OC[C@@]31OC(C)=O` (stereo not given in full): the IC50 is > 80 µM (inactive).

As for `Cc1noc(C)c1COc1cccc(C(=O)OCC(=O)N2CC(=O)Nc3ccccc32)c1`, the IC50 was > 80 µM (inactive).

Regarding `Cc1csc2sc(-c3ccnc(SCC(=O)NCc4ccccc4)n3)c(C)c12`, the IC50 is > 80 µM (inactive).

As to `Nc1ncn([C@@H]2O[C@H](CO)[C@@H](O)[C@H]2O)c(=O)n1`, the IC50 was 11.9 µM.

Regarding `CC(C)Nc1ccc(C(CC(N)=O)NC(=O)c2ccc(Br)cc2)cc1[N+](=O)[O-]` (stereo not given), the IC50 is > 80 µM (inactive).

On to `O=S(=O)(c1ccc2c(c1)OCCO2)N1CCN(c2ncnc3sccc23)CC1`, for which the IC50 was 4 µM.

Take `CCOc1ccccc1NS(=O)(=O)c1ccc(-c2cnc(C3CC3)o2)cc1`: the IC50 is > 80 µM (inactive).

As for `CCc1ccc(/C=N/NC(=O)c2cc(C3CC3)nc3ccccc23)s1`, the IC50 was 23.3 µM (inactive).

As for `Cc1cc(-n2c(C)cc(C(=O)CSc3ncnc4ccccc34)c2C)no1`, the IC50 is 67 µM (inactive).

For `COc1ccccc1N1CCN(C(=O)c2cc(=O)c3cc(C)cc(C)c3o2)CC1`, the IC50 is > 80 µM (inactive).

Consider `CCCCCN1C=CC(=C2C(=O)c3ccccc3C2=O)C=C1`, for which the IC50 is 0.38 µM.

Take `c1ccc(-c2cccc(-c3ccccn3)n2)nc1`: the IC50 is 6.4 µM.

Turning to `CC1=NNC(=O)/C1=C\c1cn(-c2ccccc2)nc1-c1ccc(Cl)cc1`, the concentration for half-maximal inhibition (IC50) was 6.48 µM.

Turning to `COc1cc(Nc2ccc(C)cc2)c([N+](=O)[O-])nc1[N+](=O)[O-]`, the IC50 is > 80 µM (inactive).

With `COc1ccc(CNC(=O)c2c(C)oc3c2C(=O)c2ccccc2C3=O)cc1`, the IC50 is > 80 µM (inactive).

For the compound `CC(C)Oc1ccccc1C1CC(=O)Nc2cc3c(cc21)OCO3` (stereo not given), the IC50 is > 80 µM (inactive).

For `CC(=O)Nc1ccc(S(=O)(=O)N2CCSc3ccccc32)cc1`, the IC50 was > 80 µM (inactive).

Take `O=C(c1ccc(CS(=O)c2ccccc2Cl)o1)N1CCN(c2ccccn2)CC1` (stereo not given): the IC50 is > 80 µM (inactive).

For `COc1ccc(C(NC(=O)C(C)C)c2ccc3cccnc3c2O)cc1` (stereo not given), the IC50 is > 80 µM (inactive).

In the case of `COc1ccc(Nc2nc(-c3sc(C)nc3C)cs2)cc1`, the IC50 is > 80 µM (inactive).

In the case of `CCOCCCNC(=O)c1ccc2c(c1)N=C(CC)c1cc(Br)ccc1S2`, the IC50 is > 80 µM (inactive).

As for `O=C(Nc1nc(-c2ccccc2)cs1)c1ccc(N2CCOCC2)c([N+](=O)[O-])c1`, the IC50 was 6.64 µM.

Take `O=c1cc(-c2cccc(F)c2)[nH]c2ccccc12`: the IC50 was > 80 µM (inactive).

Regarding `COc1cccc2sc(Nc3nnc(-c4ccccc4Cl)o3)nc12`, the IC50 is 3.64 µM.

On to `O=C(Nc1ccc(S(=O)(=O)N2CCCCC2)cc1)c1ccc(CN2CCOCC2)cc1`, for which the IC50 was 51.2 µM (inactive).

Consider `CC(=O)O[C@@]12CO[C@@H]1C[C@@H](O)[C@@]1(C)C(=O)[C@H](O)C3=C(C)[C@@H](OC(=O)[C@H](O)[C@@H](NC(=O)c4ccccc4)c4ccccc4)C[C@@](O)([C@@H](OC(=O)c4ccccc4)C12)C3(C)C` (stereo not given in full), for which the IC50 is > 80 µM (inactive).

Turning to `O=C(Nc1ccc(S(=O)(=O)N2CCCC2)cc1)c1ccc(CN2CCc3ccccc3C2)cc1`, the IC50 was > 80 µM (inactive).

In the case of `O=[N+]([O-])c1ccc(-c2nc(C(Cl)Cl)c3ccccc3n2)cc1`, the IC50 was 1.6 µM.

In the case of `CCCCCCCCCCCCCCCC[n+]1ccc(C(N)=O)cc1`, the IC50 was 8.82 µM.

In the case of `Cc1ccc2nc(-c3ccc4c(c3)OCCO4)cn2c1`, the IC50 was 0.47 µM.

For `CCCCCCCCCn1c2c(c(=N)c3c1CCC3)CCCC2`, the IC50 is 0.33 µM.

`Cc1ccc(Nc2cc(C)nn2-c2nc(C)cc(=O)[nH]2)cc1`: the IC50 was 0.95 µM.

Take `Cc1ccc(-c2cc3c(N=O)c4ccccc4c-3n[nH]2)cc1`: the IC50 is 4.58 µM.

As for `Nc1nc2n[nH]nc2c(=O)[nH]1`, the IC50 is 2.56 µM.

On to `Cc1csc2ncnc(NC3CCN(Cc4ccccc4)CC3)c12`, for which the IC50 is 8.31 µM.

For `COc1cc([C@@H]2c3cc4c(cc3[C@@H](OC)[C@H]3COC(=O)[C@H]23)OCO4)cc(OC)c1O`, the IC50 was > 80 µM (inactive).

In the case of `O=C(N/N=C\c1c(O)ccc2ccccc12)c1ccc(S(=O)(=O)N2CCCCC2)cc1`, the IC50 was > 80 µM (inactive).

Take `CC(=O)Nc1ccc(S(=O)(=O)N2c3ccccc3C(C)=CC2(C)C)cc1`: the IC50 was > 80 µM (inactive).

Take `CCCCOc1ccccc1C1CC(=O)NC2=C1C(=O)CCC2` (stereo not given): the IC50 was > 80 µM (inactive).

For the compound `CCn1c2ccccc2c2cc(NC(=O)c3cc(OC)cc(OC)c3)ccc21`, the IC50 is > 80 µM (inactive).

In the case of `COc1cc(C(=O)Nc2ccc3c(c2)ncn3C)cc(OC)c1OC`, the IC50 was > 80 µM (inactive).

Regarding `Cc1ccc2[nH]c(-c3cccc(F)c3)cc(=O)c2c1`, the IC50 is > 80 µM (inactive).

As for `O=C(Nc1nc2ccc(S(=O)(=O)N3CCCC3)cc2s1)C1CCCCC1`, the IC50 was > 80 µM (inactive).

For `CC(C)Nc1ccc(C(CC(N)=O)NC(=O)Cc2ccc(Br)cc2)cc1[N+](=O)[O-]` (stereo not given), the IC50 was 37.8 µM (inactive).

For `CCOc1ccc(S(=O)(=O)NCc2ccccn2)cc1NC(=O)c1ccccc1F`, the IC50 is > 80 µM (inactive).

As to `CCCCCn1c2c(c(=N)c3ccccc31)CCC2`, the IC50 is 50.3 µM (inactive).

With `Cc1noc(C)c1COc1ccc(C(=O)NNC(=O)c2ccccc2F)cc1`, the IC50 was > 80 µM (inactive).

As for `Cc1ccc(NC(=O)Nc2ccnc(-c3cccnc3)n2)cc1`, the IC50 is 1.05 µM.

On to `CCc1ccc2nc(SCC(=O)Nc3ccccc3N3CCOCC3)c(C#N)cc2c1`, for which the IC50 is > 80 µM (inactive).

With `Cn1nc(C(C)(C)C)cc1C(=O)NCc1cc(F)cc2c1OCOC2`, the IC50 is > 80 µM (inactive).

As to `COc1cc(C(=O)OCCc2cc3ccccc3c(=O)o2)cc(OC)c1OC`, the IC50 was > 80 µM (inactive).

Regarding `Cc1cccc(N(C)S(=O)(=O)c2ccc(-c3cnc(C4CC4)o3)cc2)c1`, the IC50 was > 80 µM (inactive).

For `CC(C)(C)C(=O)Nc1ccc(NC(=O)c2ccco2)nc1`, the IC50 was 1.47 µM.

Consider `CC(C)(C)c1ccc(C(=O)Nc2ccc(Oc3cccnc3)nc2)cc1`, for which the IC50 is 3.28 µM.

For `Cc1ccc2c(c1)C=CC(C#N)N2C(=O)c1ccccc1` (stereo not given), the IC50 is > 80 µM (inactive).

With `COC(=O)c1ccccc1NC1=C/C(=N\S(=O)(=O)c2cccs2)c2ccccc2C1=O`, the IC50 was 4.91 µM.

As for `CCCCC(=O)NC(c1ccc(N(C)C)cc1)c1ccc2cccnc2c1O` (stereo not given), the IC50 is > 80 µM (inactive).

For the compound `C[C@@H]1O[C@@H](O[C@H]2C[C@@H](O)[C@]3(CO)[C@H]4[C@H](O)C[C@]5(C)[C@@H](C6COC(=O)C6)CC[C@]5(O)[C@@H]4CC[C@]3(O)C2)[C@H](O)[C@H](O)[C@H]1O` (stereo not given in full), the IC50 was 3.72 µM.

For the compound `COc1cccc(/C=N/NC(=O)c2[nH]nc3c2CCc2ccccc2-3)c1O`, the IC50 is 61.7 µM (inactive).

For `CN1/C(=C\C(=O)C[n+]2ccc3ccccc3c2)C(C)(C)c2ccccc21`, the IC50 is > 80 µM (inactive).

As for `COc1cc(OC)c(/C=C2\C(=O)Nc3ccccc32)c(OC)c1`, the IC50 is 62.6 µM (inactive).

For the compound `COc1ccc(-n2cc(-c3ccc(C)cc3)[n+]3c2SCC3)cc1`, the IC50 is > 80 µM (inactive).

On to `Cc1oc2c(c1C(=O)NCc1cccnc1)C(=O)c1ccccc1C2=O`, for which the IC50 was 4.69 µM.

Turning to `CC(C)(C)c1nnc(N/N=C/c2ccccc2O)n(N)c1=O`, the IC50 is 52.8 µM (inactive).

As for `COc1ccc(N/N=C/c2c(C(=O)O)ccc3ccccc23)cc1`, the IC50 is 58.4 µM (inactive).

Regarding `Cc1cc(C)cc(NS(=O)(=O)c2ccc(-c3cnc(C4CC4)o3)cc2)c1`, the IC50 is 53.1 µM (inactive).

Take `Cc1ccc(C(=O)Nc2cc3ccccc3oc2=O)cc1`: the IC50 was 2.11 µM.

As for `COc1ccc(/C=c2/sc3n(c2=O)C(c2ccccc2OC)C2=C(N=3)c3ccccc3CC2)cc1O` (stereo not given), the IC50 was > 80 µM (inactive).

For `CC1CCN(c2c(NCc3ccc(C(=O)N4CCc5ccccc54)cc3)c(=O)c2=O)CC1`, the IC50 was > 80 µM (inactive).

Turning to `Cc1ccc2oc(/N=C(\N)NC(=O)C(C)(C)C)nc2c1`, the IC50 is 0.47 µM.

For `COc1ccc(OC)c(NS(=O)(=O)c2ccc(N3CCCC3=O)cc2)c1`, the IC50 is > 80 µM (inactive).

For `CN=c1scc(-c2cccs2)n1/N=C/c1ccccc1O`, the IC50 is 1.33 µM.

As for `CCOCCOC(=O)c1[nH]c2c(c1C)C(=O)CC(c1cccs1)C2` (stereo not given), the IC50 is > 80 µM (inactive).

Take `CCCC(=O)Nc1nc2ccc(NC(=O)c3c(F)c(F)c(OC)c(F)c3F)cc2s1`: the IC50 is > 80 µM (inactive).

`COc1cc(C2c3cc4c(cc3CC3COC(=O)C32)OCO4)cc(OC)c1OC` (stereo not given): the IC50 is > 80 µM (inactive).

As for `O=C(Nc1cccc2ccccc12)OC1C=CS(=O)(=O)C1` (stereo not given), the half-inhibitory concentration (IC50) is 10.7 µM.

Consider `Cc1nn(-c2ccccc2Cl)c(Cl)c1/C=N/Nc1nc2ccccc2s1`, for which the concentration for half-maximal inhibition (IC50) was < 0.16 µM.

Turning to `CCOc1ccccc1N1CC(O)=C(c2nc3ccccc3s2)C1=N`, the IC50 is 61 µM (inactive).

Take `COc1ccc2c(c1)/C(=C/c1cnc[nH]1)C(=O)N2`: the IC50 was 4.8 µM.

Take `C=C1C(O)[C@@H]2O[C@]3(CC[C@H](/C=C/C(C)[C@@H]4CC(C)=CC5(O[C@H](C[C@@](C)(O)CO)CCC5O)O4)O3)CC[C@H]2O[C@@H]1C(O)CC(C)[C@H]1OC2(CCCCO2)CCC1C` (stereo not given in full): the IC50 was 3.19 µM.

As for `CC1CC(C)CN(S(=O)(=O)c2ccc(NC(=O)c3ccc(=O)[nH]c3)cc2)C1` (stereo not given), the IC50 is > 80 µM (inactive).

With `CC1=Nc2ccccc2/C1=C\c1sc(Nc2ccc(C)cc2)nc1O`, the IC50 was 61 µM (inactive).

The values above are taken from PubChem BioAssay AID489033 (Sanford-Burnham Center for Chemical Genomics, 2010).
